Laboratory results published in US6034231A, “Human CNP gene and precursor protein” (Suntory Limited, priority 1990, dated 2000).
Positions of bridges follow the written chain, without caps; N, C: chain ends. No end group written: not given here.

System: chick rectum
Settings: read-out: EC50, chick rectum relaxant activity; isolated chick rectum
Protocol: A chick rectum relaxant activity measurement was conducted in accordance with the method of Currie et al. described in Nature, 221, 1-13, 1983.

Sequence: DLRVDTKSRAAWARLLQEHPNARKYKGANKKGLSKGCFGLKLDRIGSMSGLGC (disulfide 37-53) [hCNP-53]
- EC50: 0.87 ± 0.1 nM
